# Data as given in patent US20040096899A1, “Immunoassay method for membrane-bound matrix metalloprotease” (priority 2000, published 2004).
# Tests used:
# [1] = biological target: T1, MT1-MMP sandwich EIA (solid-phase antibody 222-2D12, labeled antibody 222-1D8) (Homo sapiens, UniProt P50281); test: Specificity test: cross reactivity on MT1-MMP sandwich EIA; type: binding; settings: concentration 1 μg/mL; blank 0.027
# T1 construct: 488 amino acid residues of Δ MT1-MMP (G^48 to G^53) which lacks the signal peptide and part of the propeptide region; made in house; host or cells: E. coli
# Procedure: Monoclonal antibodies (e.g., 333-2D12 (IgG)) were dissolved in 0.1 M phosphate buffer, pH 7.0 to a concentration of 25 μg/mL. The monoclonal antibody solution was added to each well of a 96-well microwell (Maxisorp; Nunc-Immuno Module) at 100 μL per well and allowed to stand at 4° C. for 24 hrs. […] The solid-phase antibodies were preserved at 4° C.
# Standard antigens or samples to be assayed were dispensed into a 96-well vinyl plate at 25 μL each. To each well was added a dilution buffer in aliquots of 100 μL, followed by mixing. An aliquot (100 μL) of the resultant mixture was taken out, dispensed into an antibody-solid phased plate from which a blocking solution was removed by washing. The plate was then allowed to stand at 4° C. for 16 hours.
# […] antibody 222-1D8 (Fab′-HRP) was diluted with a blocking solution to a concentration of 0.4 μg/mL. The reaction solution was removed from the antibody-solid phased plate where the primary reaction was completed. The plate was washed with a washing liquid three times and an aliquot (100 μL) of the labeled antibody solution was added to each well. The plate was allowed to stand at room temperature for 1 hour.
# After completion of the reaction, the labeled antibody solution was removed. The plate was then washed with a washing liquid three times, and a TMB solution (CALBIOCHEM) was added to each well at 100 μL. The mixture was allowed to react at room temperature for 20 minute. The reaction was stopped with the addition of 2 N sulfuric acid at 100 μL per well. The reaction mixture was measured for A450 with a microplate reader (MPR-A4; Tosoh).
# Each of MMP-1, -2, -3, -4, -7, -8, -9, -13, -19 and -20 was prepared to give a concentration of 1 μg/mL, and subjected to MT1-MMP sandwich EIA. A450 was measured. When MT1-MMP was subjected to sandwich EIA at 0.16 μg/mL, the absorbance was 2.206. However, when the above MMPs were subjected, their absorbances were only an extent of 0.024 to 0.071. Accordingly, it has been verified that MT1-MMP sandwich EIA is specifically reactive with MT1-MMP.
# MG-63 (osteosarcoma) = test: MT1-MMP sandwich EIA of cultured cell line with Con A; type: cell-based, Human; settings: MG-63, Con A-containing serum-free medium 48 hours
# Procedure: (§1) Searches for Human MT1-MMP-producing culture cell lines were carried out by means of MT1-MMP sandwich EIA. With regard to the cell lines, there were used Burkitt's lymphoma (Daudi, Namalwa, Raji), acute lymphoblastic leukemia (T-cells) (MOLT-4), chronic myelogenous leukemia (K-562), promyelocytic leukemia (HL-60), fibrosarcoma (HT-1080), breast cancer (MDA-MB-231, SK-BR-3, MCF 7), lung cancer (A 549), rectal adenocarcinoma (SW 837), osteosarcoma ([…]), lingual squamous cell carcinoma (SSC-25), uterocervical cancer (HeLa), cervical epidermoid cancer (CaSki), prostatic cancer (PC-3) and malignant melanoma (A-375) cells. Each of the cancer cell lines was incubated in a plate of 10 cm diameter until being confluent, the medium was exchanged with serum-free medium or Con A-containing serum-free medium and, after 48 hours, the culture supernatant and the cells were recovered. The cells were ultrasonically disrupted in 0.5 mL of dilution buffer and centrifuged. The resulting supernatant was subjected to EIA as a cell extract fraction. The culture supernatant was subjected to EIA as it was.
# [2] = system: SW 837 (rectal adenocarcinoma); test: as above; type: cell-based, Human; settings: SW 837, Con A-containing serum-free medium 48 hours
# Procedure: as §1
# [3] = system: CaSki (cervical epidermoid cancer); test: as above; type: cell-based, Human; settings: Con A-containing serum-free medium 48 hours
# Procedure: as §1
# HT-1080 (fibrosarcoma) = test: as above; type: cell-based, Human; settings: HT-1080, Con A-containing serum-free medium 48 hours
# Procedure: as §1
# [4] = system: SSC-25 (lingual squamous cell carcinoma); test: as above; type: cell-based, Human; settings: SSC-25, Con A-containing serum-free medium 48 hours
# Procedure: as §1
# [5] = system: MDA-MB-231 (breast cancer); test: as above; type: cell-based, Human; settings: MDA-MB-231, Con A-containing serum-free medium 48 hours
# Procedure: as §1
substance,measurement,setting,value
MMP-7: matrix metalloproteinase subjected to MT1-MMP sandwich EIA for cross reactivity,A450,[1],0.026
MMP-3: matrix metalloproteinase subjected to MT1-MMP sandwich EIA for cross reactivity,A450,[1],0.027
MMP-8: matrix metalloproteinase subjected to MT1-MMP sandwich EIA for cross reactivity,A450,[1],0.028
concanavalin A [Con A],"MT1-MMP in Cell Extract Fraction, +Con A",MG-63 (osteosarcoma); −Con A 0.7,0.0
same,"MT1-MMP in Culture Supernatant, +Con A",MG-63 (osteosarcoma); −Con A 1.6,20.3
same,"MT1-MMP in Culture Supernatant, +Con A",[2]; −Con A 1.8,14.2
same,"MT1-MMP in Cell Extract Fraction, +Con A",[2]; −Con A 21.5,30.7
same,"MT1-MMP in Culture Supernatant, +Con A",[3]; −Con A 1.7,25.1
same,"MT1-MMP in Cell Extract Fraction, +Con A",[3]; −Con A 9.0,9.5
same,"MT1-MMP in Culture Supernatant, +Con A",HT-1080 (fibrosarcoma); −Con A 10.1,80.3
same,"MT1-MMP in Cell Extract Fraction, +Con A",HT-1080 (fibrosarcoma); −Con A 45.9,42.6
same,"MT1-MMP in Culture Supernatant, +Con A",[4]; −Con A 2.8,43.1
same,"MT1-MMP in Cell Extract Fraction, +Con A",[4]; −Con A 5.9,19.1
same,"MT1-MMP in Culture Supernatant, +Con A",[5]; −Con A 7.6,48.8
same,"MT1-MMP in Cell Extract Fraction, +Con A",[5]; −Con A 42.8,85.0
